Measurements as given in US8603493B2, “Carbosilane dendrimers, preparation method thereof and use of same” (Dendrico, S.L., priority 2005, dated 2013).

Experiments:
[1] = tested on: peripheral blood mononuclear cells (PBMC); assay: Visual examination of PBMC incubated with dendrimers; format: cell-based, human; details: for visual examination of PBMC: 48 hours
Experimental: The toxicity of dendrimers IM8, IM16, ClNH4, NN, Phe and the commercial controls SF (Superfect) and G4 were tested. Different quantities were taken of each one of them so that the final concentrations with which the cells were incubated were 1 μM, 5 μM, 10 μM, 20 μM and 100 μM.
The blood came from adult donors or the umbilical cord of health newborns. Said blood was diluted ½ with PBS and it was centrifuged in a Ficoll gradient. After said centrifugation, the PBMC halo was recovered and two subsequent washing-centrifuging cycles were carried out. The resulting PBMC were resuspended in complete culture medium with 10% FCS, antibiotics and glutamine.
100 μl of 10% complete medium of foetal calf serum, antibiotics and glutamine were added to a volume of 60 μl of RPMI with the corresponding dendrimer tested. 160 μl were then added to the cells seeded in 340 μl, completing a final volume of 500 μl. The cells were incubated in this way for 48 hours and then the effect of the incubation with the dendrimers was evaluated by its visual examination and by the evaluation of the mitochondrial activity.

PBMC [2] = assay: Flow cytometry test (size and complexity; live cells vs apoptosis-necrosis); format: cell-based, human; details: 72 hours, same concentrations as Trypan Blue test
Experimental: The evaluation time on this occasion was 72 hours. The toxicity was evaluated on PBMC, produced in the manner described in Example 38. […] The ODN used was PPT, in the following way: • [ODN PPT] in the complex with the CBS: 2.57 (0.88 μM) • [ODN PPT] in the complex with SF: 0.34 μM • [ODN PPT] in the complex with G4: 1 μM […] The cells were either incubated with said complexes, a mixture of equal volume which contained ODN without CBS, a mixture which contained dendrimer alone, or with a mixture which contained only RPMI+complete medium which was used as negative control. The cells and/or the supernatant were then collected to be analysed by flow cytometry, confocal microscopy or cell DNA extraction. The percentages of cells with size and complexity corresponding to cells in apoptosis-necrosis were compared with the live cells. For this, the size (FW) and the complexity (SD) was evaluated by flow cytometry. To do this, a region was drawn around the cells with FW and SD corresponding to cells in apoptosis-necrosis and another around the cells with FW and SD corresponding to live cells. The percentages of cells present in each slide were compared. The graphics produced are shown in FIG. 15, wherein the X-axis represents the size (FW) and the Y-axis the complexity (SD). […] The cloud of dark cells corresponds to cells in apoptosis necrosis. The live cells are represented in grey.

ODN PPT = assay: Stability of the dendriplexes at different pHs; format: physicochemical; details: dendriplexes with PPT, 2/1 charge ratio; for stability of dendrimer-ODN complex at the pHs tested: pHs 2.8, 2.7, 4.7, 5.7, 6.4, 7.4, 8
Experimental: Stability studies were carried out on the complexes a different pHs, to determine how the changes in pH would affect the complex, since there are different anatomic, tissue or cell localizations in which the pH acidifies or alkalinifies. Examples are stomach ambient acid, the alkali of the pancreatic secretions of the small intestine, or at a cellular level, the endosome-lisosome behaviour, where it changes from a physiological pH (7.35-7.45) to an acid pH around 4. It is interesting to know, therefore, in what pH range the DNA complex could be maintained with the different CBS used. The complexes were formed following the habitual process and volumes were added in excess of different solutions at different pHs. Therefore, for each one of dendrimers Phe, ClNH4, NN, IM8 and IM16, according to Example 31, 7 solutions were prepared of dendriplexes formed with PPT, in a 2/1 charge ratio and with the following pHs: […]; 2.7; 4.7; 5.7; 6.4; 7.4; 8: The results produced are shown in the electrophoresis gels which appear in FIG. 4, wherein the height of the normal ODN migration band is shown with arrows in the lower part of the gels. The samples were loaded from left to right following an increasing pH order. No sample was formed in the wells indicated with an X.

PBMC [3] = assay: Lymphoproliferative test (tritiated thymidine); format: cell-based, human; details: 5 days, average of triplicate
Experimental: To evaluate the antigenic capacity of CBS dendrimers, a lymphoproliferative test was performed. The experiment was prepared in triplicate in a 96-well flat bottomed plate (100,000 cells per well in 200 μl of complete human AB medium with antibiotics, glutamine and 10% AB serum). […] After 5 days of incubation at 37° C. with 5% atmosphere of CO2 100 μl of supernatant was removed, then adding 100 μL of a medium with an isotopic intercalating agent of DNA, tritiated thymidine (prepared with 10% AB medium and Thymidine 1/100). The plate was then filtered using a Harvester passing its content through a filter, which was left to dry overnight (approx. 16 hours). After this period, a sheet of Methylex® containing scintillation medium was heat-melted, and it was read in a gamma camera to evaluate the number of counts (greater the counts, more proliferation). The results, which are shown below in Table 8, are expressed as tritiated thymidine counts per minute (cpm). Each result of each concentration was performed in triplicate, the value which appears in the table being the average of the 3. The PHA and the control were tested 12 times.

erythrocytes = assay: Visual examination of erythrocytes (hemagglutination); format: cell-based, human
Experimental: A visual examination was carried out to detect the presence/absence of hemagglutination and quantification of haemoglobin release (haemolysis test) by spectrophotometry. ClNH4 was excluded from the dendrimers of previous Example 38, as the result had been more toxic for lymphocytes, and the results were compared with those produced for a PAMAN type generation 4 dendrimer.
The erythrocytes were obtained after being separated from the PBMC using the same Ficoll gradient cited in the previous Example. They were diluted in PBS to be able to view them individually. The cells were resuspended in 500 μl of PBS and were seeded in a 24-well plate (300,000/well). As positive control, cells treated with 0.2% Triton X-100 were used. Negative control: PBS (blank). The erythrocytes were incubated with different dendrimer concentrations. The presence of hemagglutination, number of cells and release of haemoglobin by hour were evaluated by collecting 100 μl of supernatant and measuring absorbencies by spectrophotometry using a plate reader at a wavelength of 550 nm and 690 nm as reference.

| SMILES | visual examination of PBMC ([1]; 1 μM) | visual examination of PBMC ([1]; 5 μM) | Apoptosis-necrosis (%) (PBMC [2]) | Live cells (%) (PBMC [2]) | stability of dendrimer-ODN complex at the pHs tested (ODN PPT) | Measurement of the scintillation counter (tritiated thymidine counts) (PBMC [3]; 2 μM) | Measurement of the scintillation counter (tritiated thymidine counts) (PBMC [3]; 5 μM) | pH at which the dendrimer-ODN complex is labile / dissociated (ODN PPT) | order of hemagglutination from greater to lesser (erythrocytes) | Visual examination of erythrocytes incubated with dendrimers (erythrocytes; 1 μM) | Visual examination of erythrocytes incubated with dendrimers (erythrocytes; 5 μM) | Visual examination of erythrocytes incubated with dendrimers (erythrocytes; 10 μM) | Visual examination of erythrocytes incubated with dendrimers (erythrocytes; 20 μM) | visual examination of PBMC ([1]; 10 μM) | induction of hemagglutination / haemolysis (erythrocytes) | toxicity for the lymphocytes from the visual observation (comparison) [1] | biocompatibility profile, toxicity on lymphocytes and erythrocytes taken together (erythrocytes) | visual examination of PBMC ([1]; 20 μM) | visual examination of PBMC ([1]; 100 μM) |
| --- | --- | --- | --- | --- | --- | --- | --- | --- | --- | --- | --- | --- | --- | --- | --- | --- | --- | --- | --- |
| C[Si](C)(CCCN)CCC[Si](C)(CCC[Si](C)(C)CCCN)CCC[Si](CCC[Si](C)(CCC[Si](C)(C)CCCN)CCC[Si](C)(C)CCCN)(CCC[Si](C)(CCC[Si](C)(C)CCCN)CCC[Si](C)(C)CCCN)CCC[Si](C)(CCC[Si](C)(C)CCCN)CCC[Si](C)(C)CCCN.Cl.Cl.Cl.Cl.Cl.Cl.Cl.Cl [ClNH4, 2G-[Si(CH2)3NH3^+Cl^−]8] | O.K | Aggregates + | 26% | 71% | stable at all pHs tested |  |  |  |  |  |  |  |  |  |  |  |  |  |  |
| C[N+](C)(C)CCO[Si](C)(C)CCC[Si](C)(CCC[Si](CCC[Si](C)(CCC[Si](C)(C)OCC[N+](C)(C)C)CCC[Si](C)(C)OCC[N+](C)(C)C)(CCC[Si](C)(CCC[Si](C)(C)OCC[N+](C)(C)C)CCC[Si](C)(C)OCC[N+](C)(C)C)CCC[Si](C)(CCC[Si](C)(C)OCC[N+](C)(C)C)CCC[Si](C)(C)OCC[N+](C)(C)C)CCC[Si](C)(C)OCC[N+](C)(C)C.[I-].[I-].[I-].[I-].[I-].[I-].[I-].[I-] [IM8, 2G-[Si(OCH2CH2NMe3^+I^−)]8] | O.K | O.K | 36% | 59% |  | 144 cpm | 149 cpm | < 4.7 | G4>Phe>IM16>IM8>NN | O.K | Ag+ | Ag+ | No cells |  |  |  |  |  |  |
| C[N+](C)(C)CCO[Si](C)(CCC[Si](C)(CCC[Si](CCC[Si](C)(CCC[Si](C)(OCC[N+](C)(C)C)OCC[N+](C)(C)C)CCC[Si](C)(OCC[N+](C)(C)C)OCC[N+](C)(C)C)(CCC[Si](C)(CCC[Si](C)(OCC[N+](C)(C)C)OCC[N+](C)(C)C)CCC[Si](C)(OCC[N+](C)(C)C)OCC[N+](C)(C)C)CCC[Si](C)(CCC[Si](C)(OCC[N+](C)(C)C)OCC[N+](C)(C)C)CCC[Si](C)(OCC[N+](C)(C)C)OCC[N+](C)(C)C)CCC[Si](C)(OCC[N+](C)(C)C)OCC[N+](C)(C)C)OCC[N+](C)(C)C.[I-].[I-].[I-].[I-].[I-].[I-].[I-].[I-].[I-].[I-].[I-].[I-].[I-].[I-].[I-].[I-] [IM16, 2G-[Si(OCH2CH2NMe3^+I^−)2]8] | O.K | O.K | 28% | 67% |  | 175 cpm | 141 cpm |  | G4>Phe>IM16>IM8>NN | O.K | Ag++ |  | No cells | Cell aggregates + | induces agglutination |  |  |  |  |
| CN(CCO[Si](C)(C)CCC[Si](C)(CCC[Si](CCC[Si](C)(CCC[Si](C)(C)OCCN(C)CC[N+](C)(C)C)CCC[Si](C)(C)OCCN(C)CC[N+](C)(C)C)(CCC[Si](C)(CCC[Si](C)(C)OCCN(C)CC[N+](C)(C)C)CCC[Si](C)(C)OCCN(C)CC[N+](C)(C)C)CCC[Si](C)(CCC[Si](C)(C)OCCN(C)CC[N+](C)(C)C)CCC[Si](C)(C)OCCN(C)CC[N+](C)(C)C)CCC[Si](C)(C)OCCN(C)CC[N+](C)(C)C)CC[N+](C)(C)C.[I-].[I-].[I-].[I-].[I-].[I-].[I-].[I-] [NN, 2G-[Si(O(CH2)2N(Me)(CH2)2NMe3^+I^−)]8] | O.K | O.K | 24% | 70% |  | 145 cpm | 160 cpm |  | G4>Phe>IM16>IM8>NN | O.K | O.K | Ag+/− | No cells |  | does not | least toxic | better biocompatibility profiles |  |  |
| C[N+](C)(C)CCOc1cc(CO[Si](C)(C)CCC[Si](C)(CCC[Si](CCC[Si](C)(CCC[Si](C)(C)OCc2cc(OCC[N+](C)(C)C)cc(OCC[N+](C)(C)C)c2)CCC[Si](C)(C)OCc2cc(OCC[N+](C)(C)C)cc(OCC[N+](C)(C)C)c2)(CCC[Si](C)(CCC[Si](C)(C)OCc2cc(OCC[N+](C)(C)C)cc(OCC[N+](C)(C)C)c2)CCC[Si](C)(C)OCc2cc(OCC[N+](C)(C)C)cc(OCC[N+](C)(C)C)c2)CCC[Si](C)(CCC[Si](C)(C)OCc2cc(OCC[N+](C)(C)C)cc(OCC[N+](C)(C)C)c2)CCC[Si](C)(C)OCc2cc(OCC[N+](C)(C)C)cc(OCC[N+](C)(C)C)c2)CCC[Si](C)(C)OCc2cc(OCC[N+](C)(C)C)cc(OCC[N+](C)(C)C)c2)cc(OCC[N+](C)(C)C)c1.[I-].[I-].[I-].[I-].[I-].[I-].[I-].[I-].[I-].[I-].[I-].[I-].[I-].[I-].[I-].[I-] [Phe, 2G-[Si(OCH2—(C6H3)-3,5-(OCH2CH2NMe3^+I^−)2)]8] | O.K | O.K | 33% | 61% | stable at all pHs tested | 146 cpm | 170 cpm |  | G4>Phe>IM16>IM8>NN | Ag+ | Ag+++ | Ag+++ |  | O.K | induces hemagglutination | least toxic |  | Few cells | Isolated cells. |
